Biological target: T1, MAP4K1 (HPK1) (Homo sapiens, UniProt Q92918)
T1 construct: purchased Invitrogen
Assay: Inhibition of MAP4K1 biochemical enzymatic activity (EZReader 2 electrophoretic mobility shift assay)
Details: HPK1 (Invitrogen), S6K2tide 1.5 μM, 120 min; ATP 26 μM or 1000 μM (not stated which)
Excerpt: MAP4K1 (HPK1) and relevant off-target enzymatic activity was monitored using the Perkin Elmer electrophoretic mobility shift technology platform—the EZReader 2. […] Within the linear, steady-state phase of the kinase enzymatic reaction, the mixed pool of phosphorylated (product) and non-phosphorylated (substrate) peptides was passed through the microfluidic system of the PerkinElmer EZ Reader 2, under an applied electric potential difference. The presence of the phosphate group on the product peptide provided a difference in mass and charge between that of the substrate peptide, resulting in a separation of the substrate and product pools in the sample (Perrin et al. 2010). As the product and substrate peptide mixture passes the lasers within the instrument, these pools are detected (λex=488 nm, λem=568 nm) and resolved as separate peaks. The ratio between these peaks reflects the activity of the compound at that concentration, in that well, under those conditions.
Inhibitors were dissolved in 100% DMSO at a stock concentration of 10 mM. A 100×, 10-point, 4-fold serial dilution of each inhibitor was created in 100% DMSO either manually or on a Hamilton STAR liquid handler, starting at a relevant concentration, usually 1 mM. A volume of 0.130 μL of each concentration was transferred to the relevant wells of a 384-well plate (Greiner 781 201) in diplicate using a TTPLabtech Mosquito nano-litre dispenser. Using a Multidrop Combi, the remaining constituents of the kinase reaction were added to the 130 nL of dosed compound as follows (see table below for final reaction details):
Enzyme activity assays at the ^APPKM for ATP or 1 mM ATP: In each well of a 384-well plate, 0.1-15 nM of untreated enzyme was incubated in a total of 13 μL of buffer (100 mM HEPES pH 7.5, 0.015% Brij 35, 10 mM MgCl2, 1 mM DTT) with 1.5 μM fluorescent peptid and 20-1000 μM ATP, at 25° C., for 60-180 minutes in the presence or absence of a dosed concentration series of compound (1% DMSO final concentration). The kinase reactions were stopped by the addition of 70 μl of Stop buffer (100 mM HEPES pH 7.5, 0.015% Brij 35, 35 mM EDTA and 0.2% of Coating Reagent 3 (Caliper Lifesciences)). The plates were read on a Caliper EZReader 2 as described above.

T1 sequence (Q92918 whole entry): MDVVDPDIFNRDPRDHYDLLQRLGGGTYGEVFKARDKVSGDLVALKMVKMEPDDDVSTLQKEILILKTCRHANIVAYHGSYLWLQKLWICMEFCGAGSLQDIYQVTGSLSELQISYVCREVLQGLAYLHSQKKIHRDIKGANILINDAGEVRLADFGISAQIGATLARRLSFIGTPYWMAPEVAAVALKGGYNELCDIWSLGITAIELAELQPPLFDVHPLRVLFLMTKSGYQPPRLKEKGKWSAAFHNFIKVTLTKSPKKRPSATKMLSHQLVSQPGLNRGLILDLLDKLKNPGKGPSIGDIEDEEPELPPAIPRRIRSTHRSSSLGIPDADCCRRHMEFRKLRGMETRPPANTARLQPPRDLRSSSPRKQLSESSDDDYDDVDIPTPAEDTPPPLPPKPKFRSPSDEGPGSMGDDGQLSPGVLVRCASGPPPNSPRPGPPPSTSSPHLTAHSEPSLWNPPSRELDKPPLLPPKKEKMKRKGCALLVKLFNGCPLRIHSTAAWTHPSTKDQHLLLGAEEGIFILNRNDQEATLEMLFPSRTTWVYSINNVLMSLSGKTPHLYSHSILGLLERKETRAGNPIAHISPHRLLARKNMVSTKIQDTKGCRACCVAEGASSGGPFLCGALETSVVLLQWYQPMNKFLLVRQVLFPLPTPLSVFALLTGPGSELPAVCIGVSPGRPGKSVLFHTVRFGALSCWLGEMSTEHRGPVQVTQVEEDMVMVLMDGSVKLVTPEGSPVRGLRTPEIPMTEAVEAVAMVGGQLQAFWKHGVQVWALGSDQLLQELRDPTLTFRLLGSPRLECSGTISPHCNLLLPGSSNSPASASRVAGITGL

Compound	IC50 [nM]
CC(=O)N1CC(Oc2ncc(C(C)(C)N)c3cc(Nc4ccc5c(n4)[C@H](C)COC5=O)ncc23)C1 (single isomer, unassigned) [Compound 17]	0.49
CC(=O)N1CC(Oc2ncc(C(C)(C)N)c3cc(Nc4ccc5c(n4)[C@@H](C)COC5=O)ncc23)C1 (single isomer, unassigned) [Compound 18]	3.06
CC[C@@H](N)c1cnc(OC2CN(C(=O)[C@@H]3C[C@@H]3F)C2)c2cnc(Nc3ccc4c(n3)[C@@H](C)[C@H](C)OC4=O)cc12 (single isomer, unassigned) [Compound 58]	0.75
CO[C@@H](C)C(=O)N1CC(Oc2ncc(C(C)(C)N)c3cc(Nc4ccc5c(n4)[C@@H](C)C(C)(C)OC5=O)ncc23)C1 (single isomer, unassigned) [Compound 86]	0.27
CO[C@H](C)C(=O)N1CC(Oc2ncc(C(C)(C)N)c3cc(Nc4ccc5c(n4)[C@@H](C)C(C)(C)OC5=O)ncc23)C1 (single isomer, unassigned) [Compound 88]	0.21
C[C@@H]1c2nc(Nc3cc4c(C(C)(C)N)cnc(OC[C@@H]5C[C@H]5C(=O)N(C)C)c4cn3)ccc2C(=O)OC1(C)C (single isomer, unassigned) [Compound 104]	0.2
C[C@@H]1c2nc(Nc3cc4c(C(C)(C)N)cnc(OC[C@H]5C[C@@H]5C(=O)N(C)C)c4cn3)ccc2C(=O)OC1(C)C (single isomer, unassigned) [Compound 105]	0.2
C[C@@H]1c2nc(Nc3cc4c(C(C)(C)N)cnc(OC[C@H]5C[C@H]5C(=O)N(C)C)c4cn3)ccc2C(=O)OC1(C)C (single isomer, unassigned) [Compound 106]	0.39
C[C@@H]1c2nc(Nc3cc4c(C(C)(C)N)cnc(OC[C@@H]5C[C@@H]5C(=O)N(C)C)c4cn3)ccc2C(=O)OC1(C)C (single isomer, unassigned) [Compound 107]	0.31
CC[C@H](N)c1cnc(O[C@H]2C[C@@H](C(=O)N3CC(OC)C3)C2)c2cnc(Nc3ccc4c(n3)[C@@H](C)C(C)(C)OC4=O)cc12 (single isomer, unassigned) [Compound 126]	1.81
CCC(=O)N1CC(Oc2ncc(C(C)(C)N)c3cc(Nc4ccc5c(n4)[C@@H](C)[C@H](C)OC5=O)ncc23)C1 [Compound 2]	0.38
COC[C@@](C)(N)c1cnc(OC2CN(C(=O)C3CC3)C2)c2cnc(Nc3ccc4c(n3)[C@@H](C)C(C)(C)OC4=O)cc12 [Compound 16]	0.47
CC[C@@](C)(N)c1cnc(OC2CN(C(C)=O)C2)c2cnc(Nc3ccc4c(n3)[C@@H](C)[C@H](C)OC4=O)cc12 [Compound 23]	0.32
CC(=O)N1CC[C@@H](Oc2ncc(C(C)(C)N)c3cc(Nc4ccc5c(n4)[C@@H](C)[C@H](C)OC5=O)ncc23)C1 [Compound 24]	0.89
CC(=O)N1CC[C@H](Oc2ncc(C(C)(C)N)c3cc(Nc4ccc5c(n4)[C@@H](C)[C@H](C)OC5=O)ncc23)C1 [Compound 25]	1.38
CC(=O)N1CC(C)(Oc2ncc(C(C)(C)N)c3cc(Nc4ccc5c(n4)[C@@H](C)[C@H](C)OC5=O)ncc23)C1 [Compound 26]	0.31
COC(=O)N1CC(Oc2ncc(C(C)(C)N)c3cc(Nc4ccc5c(n4)[C@@H](C)[C@H](C)OC5=O)ncc23)C1 [Compound 27]	0.3
CC(=O)N(C)CCOc1ncc(C(C)(C)N)c2cc(Nc3ccc4c(n3)[C@@H](C)C(C)(C)OC4=O)ncc12 [Compound 28]	0.29
CC(=O)N1CC(Oc2ncc(C(C)(C)N)c3cc(Nc4ccc5c(n4)C4(CC4)C(C)(C)OC5=O)ncc23)C1 [Compound 30]	0.2
CC[C@@](C)(N)c1cnc(OC2CN(C(C)=O)C2)c2cnc(Nc3ccc4c(n3)[C@@H](C)C(C)(C)OC4=O)cc12 [Compound 32]	0.17
COC(=O)N1CC[C@H](Oc2ncc(C(C)(C)N)c3cc(Nc4ccc5c(n4)[C@@H](C)[C@H](C)OC5=O)ncc23)C1 [Compound 35]	0.3
COC(=O)N1CC[C@@H](Oc2ncc(C(C)(C)N)c3cc(Nc4ccc5c(n4)[C@@H](C)[C@H](C)OC5=O)ncc23)C1 [Compound 36]	0.65
CCOC(=O)N1CC(Oc2ncc(C(C)(C)N)c3cc(Nc4ccc5c(n4)[C@@H](C)[C@H](C)OC5=O)ncc23)C1 [Compound 37]	0.15
COC(=O)N1CC(Oc2ncc(C(C)(C)N)c3cc(Nc4ccc5c(n4)[C@@H](C)C(C)(C)OC5=O)ncc23)C1 [Compound 38]	0.23
C[C@@H]1c2nc(Nc3cc4c(C(C)(C)N)ccc(OC5CN(C(=O)C6CC6)C5)c4cn3)ccc2C(=O)OC1(C)C [Compound 41]	0.1

Compound	IC50 [nM]
C[C@@H]1c2nc(Nc3cc4c(C(C)(C)N)cnc(NC5CN(C(=O)C6CC6)C5)c4cn3)ccc2C(=O)OC1(C)C [Compound 42]	0.33
CCC(=O)N1CC(Oc2ncc(C(C)(C)N)c3cc(Nc4ccc5c(n4)C4(CC4)C(C)(C)OC5=O)ncc23)C1 [Compound 43]	0.22
C[C@@H]1C[C@@H]1C(=O)N1CC(Oc2ncc(C(C)(C)N)c3cc(Nc4ccc5c(n4)[C@@H](C)[C@H](C)OC5=O)ncc23)C1 [Compound 44]	0.12
C[C@@H]1OC(=O)c2ccc(Nc3cc4c(C(C)(C)N)cnc(O[C@@H]5CN(C(=O)C6CC6)[C@H]5C)c4cn3)nc2[C@H]1C [Compound 45]	0.16
C[C@@H]1OC(=O)c2ccc(Nc3cc4c(C(C)(C)N)cnc(OC5CN(C(=O)[C@@H]6C[C@@H]6C)C5)c4cn3)nc2[C@H]1C [Compound 46]	0.23
C[C@@H]1OC(=O)c2ccc(Nc3cc4c(C(C)(C)N)cnc(OC5CN(C(=O)[C@H]6C[C@@H]6C)C5)c4cn3)nc2[C@H]1C [Compound 47]	0.18
C[C@@H]1OC(=O)c2ccc(Nc3cc4c(C(C)(C)N)cnc(O[C@H]5CCN(C(=O)C6CC6)C5)c4cn3)nc2[C@H]1C [Compound 50]	0.32
C[C@@H]1OC(=O)c2ccc(Nc3cc4c(C(C)(C)N)cnc(O[C@@H]5CCN(C(=O)C6CC6)C5)c4cn3)nc2[C@H]1C [Compound 51]	0.36
C[C@@H]1OC(=O)c2ccc(Nc3cc4c(C(C)(C)N)cnc(OC5CN(C(=O)C6(C)CC6)C5)c4cn3)nc2[C@H]1C [Compound 52]	0.18
C[C@@H]1OC(=O)c2ccc(Nc3cc4c(C(C)(C)N)cnc(OC5CN(C(=O)C6(O)CC6)C5)c4cn3)nc2[C@H]1C [Compound 55]	0.16
CC[C@H](N)c1cnc(OC2CN(C(=O)[C@@H]3C[C@@H]3F)C2)c2cnc(Nc3ccc4c(n3)[C@@H](C)[C@H](C)OC4=O)cc12 [Compound 59]	0.24
C[C@@H]1OC(=O)c2ccc(Nc3cc4c(C(C)(C)N)cnc(OC5CN(C(=O)C6(F)CC6)C5)c4cn3)nc2[C@H]1C [Compound 60]	0.16
COCC(=O)N1CC(Oc2ncc(C(C)(C)N)c3cc(Nc4ccc5c(n4)[C@@H](C)C(C)(C)OC5=O)ncc23)C1 [Compound 61]	0.21
C[C@@H]1C[C@@H]1C(=O)N1CC(Oc2ncc(C(C)(C)N)c3cc(Nc4ccc5c(n4)[C@@H](C)C(C)(C)OC5=O)ncc23)C1 [Compound 64]	0.16
C[C@@H]1C[C@H]1C(=O)N1CC(Oc2ncc(C(C)(C)N)c3cc(Nc4ccc5c(n4)[C@@H](C)C(C)(C)OC5=O)ncc23)C1 [Compound 66]	0.22
C[C@@H]1c2nc(Nc3cc4c(C(C)(C)N)cnc(OC5CN(C(=O)[C@@H]6C[C@@H]6C)C5)c4cn3)ccc2C(=O)OC1(C)C [Compound 67]	0.2
C[C@@H]1c2nc(Nc3cc4c(C(C)(C)N)cnc(OC5CN(C(=O)[C@H]6C[C@@H]6C)C5)c4cn3)ccc2C(=O)OC1(C)C [Compound 68]	0.16
C[C@@H]1OC(=O)c2ccc(Nc3cc4c(C(C)(C)N)cnc(OC5CN(C(=O)[C@H]6CC6(C)C)C5)c4cn3)nc2[C@H]1C [Compound 69]	0.14
C[C@@H]1c2nc(Nc3cc4c(C(C)(C)N)cnc(OC5CN(C(=O)C6(C)CC6)C5)c4cn3)ccc2C(=O)OC1(C)C [Compound 71]	0.27
C[C@@H]1OC(=O)c2ccc(Nc3cc4c(C(C)(C)N)cnc(OC5CN(C(=O)[C@H]6CCOC6)C5)c4cn3)nc2[C@H]1C [Compound 73]	0.32
C[C@@H]1OC(=O)c2ccc(Nc3cc4c(C(C)(C)N)cnc(OC5CN(C(=O)[C@@H]6CCOC6)C5)c4cn3)nc2[C@H]1C [Compound 74]	0.36
C[C@@H]1OC(=O)c2ccc(Nc3cc4c(C(C)(C)N)cnc(OC5CN(C(=O)[C@H]6CCCO6)C5)c4cn3)nc2[C@H]1C [Compound 75]	0.38
C[C@@H]1c2nc(Nc3cc4c(C(C)(C)N)cnc(OC5CN(C(=O)C6(O)CC6)C5)c4cn3)ccc2C(=O)OC1(C)C [Compound 78]	0.43
COC1(C(=O)N2CC(Oc3ncc(C(C)(C)N)c4cc(Nc5ccc6c(n5)[C@@H](C)[C@H](C)OC6=O)ncc34)C2)CC1 [Compound 79]	0.31
